Measurements: BigSolDB 2.1

O=C(O)c1ccco1
solubility (mole fraction)
Settings	in 1,2-dichloroethane	in MIBK	in acetonitrile	in diisopropyl ether	in methanol	in n-hexane	in toluene
283.15 K	0.014	0.095	0.046	0.035	0.347	–	0.005
288.15 K	0.017	0.11	0.057	0.041	0.393	–	0.006
293.15 K	0.023	0.122	0.064	0.048	0.428	–	0.008
298.15 K	0.029	0.137	0.077	0.054	0.451	0.001	0.011
303.15 K	0.035	0.154	0.093	0.061	0.48	0.001	0.013
308.15 K	0.046	0.177	0.115	0.069	0.504	0.001	0.017
313.15 K	0.057	0.195	0.132	0.077	0.524	0.002	0.021
318.15 K	0.068	0.211	0.155	0.087	0.551	0.002	0.027
323.15 K	0.084	0.237	0.182	0.097	0.571	0.003	0.034
328.15 K	0.103	0.26	0.208	0.108	0.607	0.004	0.045
333.15 K	0.126	0.286	0.242	0.121	0.643	0.005	0.056
